# Experimental data taken from US10166142B2, “Small molecule delivery with implantable therapeutic device” (ForSight Vision4, Inc., priority 2011, dated 2019).
# Where a name gives a salt, the structure may show the parent alone. Read-outs that look alike come from different tables or passages of the source.
# Key:
# [1] = Solubility of dorzolamide suspension formulation, Example A; format: physicochemical; conditions: aqueous buffer, thermodynamic from solid; PBS+0.02% sodium azide, pH 7.4, 37C; read-out: dissolved concentration (i.e., solubility)
# [2] = Diffusion coefficient in water (literature value / estimate by MW scaling); format: physicochemical; conditions: estimated, at 37C
# Description: If the reservoir solution is aqueous or has a viscosity similar to water, the value for the diffusion coefficient of the therapeutic agent (TA) in water at the temperature of interest may be used. […] (Molokhia et al, Exp Eye Res 2008): DTA,37C=DBSA,20C(η20C/η37C)(MWBSA/MWTA)^1/3 where
# MW refers to the molecular weight of either BSA or the test compound and η is the viscosity of water.
# Small molecules have a diffusion coefficient similar to fluorescein (MW=330, D=4.8 to 6 e-6 cm^2/s from Stay, M S et al. Pharm Res 2003, 20(1), pp. 96-102). For example, the small molecule may comprise a glucocorticoid such as triamcinolone acetonide having a molecular weight of about 435.
# (§1) The volume of the device was approximately 25 uL.
# as §1
# [3] = system: laser photocoagulation treatment-induced Grade IV choroidal neovascularization (CNV) Lesions; conditions: intravitreal injection, all doses tested (Z. Yao et al., ARVO 2009); cited from earlier work
# [4] = rabbit and monkey (Gaudreault et al), cited from earlier work
# [5] = cited from earlier work
compound,measurement,setting,value
"CCN[C@H]1C[C@H](C)S(=O)(=O)c2sc(S(N)(=O)=O)cc21 [Dorzolamide, dorzolamide Hydrochloride]",solubility,[1],9000 µg/mL
"O=C(c1ccccc1)c1ccc2n1CCC2C(=O)O (centres unmarked) [Ketorolac, Ketorolac Tromethamine]",diffusion coefficient,[2],6×10^−6 cm^2/s
ranibizumab [Lucentis],development of Grade IV CNV lesions,[3],completely inhibit
same,half-life in vitreous,[4],about two to four days
same,half-life in vitreous,[4]; listed as ranibizumab,approximately 3 days
same,half-life in vitreous,[5]; human eye (Lucentis package insert),~220 h
same,Half-life,"[5]; human vitreous, model parameter for FIGS. 119 to 124",220 h
"CN(Cc1cnc2nc(N)nc(N)c2n1)c1ccc(C(=O)N[C@@H](CCC(=O)O)C(=O)O)cc1 [Methotrexate, methotrexate]",diffusion coefficient,[2],5×10^−6 cm^2/s
